In patent publication US20150362481A1, “METHOD FOR THE IDENTIFICATION OF BITTER TASTING COMPOUNDS AND BITTER TASTE MODULATING COMPOUNDS” (Universitat Wien, priority 2013, published 2015):
Values joined by “and” are separate entries in the source; they are usually repeats but may differ in a detail not shown here. Identical values can stand only once.

Legend:
HGT-1 cells [1] = test: Proton secretion in HGT-1 cells after stimulation with bitter substances (intracellular pH, SNARF-1-AM); type: cell-based, human; conditions: 10 min stimulation, vs untreated cells
Description: The human gastric tumor cell line HGT-1 was used for all cell culture experiments. This cell line has been obtained from Dr. C. Laboisse (Laboratory of Pathological Anatomy, Nantes, France). The cells were cultured under standard conditions at 37° C., 95% humidity, and 5% CO2 in DMEM with 4 g/L glucose, 10% fetal bovine serum, 2% L-glutamine, and 1% penicillin/streptomycin. For the reverse transcription and the intracellular proton concentration assay, the cells were harvested using trypsin/EDTA. Cell viability has been determined using trypan blue staining for which the cells were seeded in a defined cell number in 35 mm dishes respectively in black 96-well plates. […] In a 96-well plate, a total of 100 000 HGT-1 cells were spread and allowed to settle for 24 h at 37° C., 95% humidity, and 5% CO2. Cells were washed once with Krebs-Ringer-HEPES buffer (KRHB), and incubated with the fluorescence dye SNARF-1-AM at a concentration of 3 μM for 30 min. […] As positive control, the cells were treated with 1 mM histamine. Fluorescence was analyzed at an excitation of 488 nm, whereas emission wavelengths were recorded at 580 nm and 640 nm on an Infinite 200 Pro plate reader. The ratio of the fluorescence intensities from those two emission wavelengths allows an accurate determination of pH when plotted on a calibration curve. […] The potassium buffer calibration solutions for the intracellular pH measurement consisted of 20 mM NaCl, 110 mM KCl, 1 mM CaCl2, 1 mM MgSO4, 18 mM D-glucose, and 20 mM HEPES. The pH calibration was fit to a linear regression. Intracellular proton concentration was calculated from the pH. The reduced amount of protons in the cell was calculated by log 2 transformation of the ratio between treated and untreated cells (control). The presented data is given as percent variation in comparison to untreated cells. […] Statistic: one-way Anova with post-hoc Test after Dunn's. Significant differences (p<0.05) are indicated by letters. […] Statistic: one-way Anova with post-hoc Test after Dunn's. Significant differences (p<0.05) are indicated by letters.

[2] = system: sensorically-trained expert panel; test: Sensoric assessment: bitter-reduction of a bitter tasting solution; type: in vivo, human; design: key to Bitterness Bitter compound + Test substance: 1 = not bitter, 10 = extremely bitter; conditions: for Bitterness Bitter compound + Test substance: scale 1 to 10; for Bitterness Bitter compound alone: scale 1 [not bitter] to 10 [extremely bitter]
Description: For categorization of the bitter impression, a scale from 1 [not bitter] to 10 [extremely bitter] was used. For calculation of the percent reduction of bitter taste, the mean values of the rating of the expert panel for the solution of the bitter substance alone and the solution of the bitter substance in combination with the tested potential masking substance were compared. Significances were calculated using a paired, two sided student t-test and indicated by the p-values in Table 4.

HGT-1 cells [3] = test: Reduction of bitter substance induced proton secretion in HGT-1 cells by bitter-masking compounds; type: cell-based, human; conditions: 10 min
Description: The human gastric tumor cell line HGT-1 was used for all cell culture experiments. This cell line has been obtained from Dr. C. Laboisse (Laboratory of Pathological Anatomy, Nantes, France). The cells were cultured under standard conditions at 37° C., 95% humidity, and 5% CO2 in DMEM with 4 g/L glucose, 10% fetal bovine serum, 2% L-glutamine, and 1% penicillin/streptomycin. For the reverse transcription and the intracellular proton concentration assay, the cells were harvested using trypsin/EDTA. Cell viability has been determined using trypan blue staining for which the cells were seeded in a defined cell number in 35 mm dishes respectively in black 96-well plates. […] In a 96-well plate, a total of 100,000 HGT-1 cells were spread and allowed to settle for 24 h at 37° C., 95% humidity, and 5% CO2. Cells were washed once with KRHB and incubated with the fluorescence dye SNARF-1-AM at a concentration of 3 μM for 30 min. […] As positive control, the cells were treated with 1 mM histamine. Fluorescence was analyzed at an excitation of 488 nm and emission wavelengths were recorded at 580 nm and 640 nm on an Infinite 200 Pro plate reader. The ratio of the fluorescence intensities from those two emission wavelengths allows an accurate determination of pH when plotted on a calibration curve. […] The potassium buffer calibration solutions for the intracellular pH measurement consisted of 20 mM NaCl, 110 mM KCl, 1 mM CaCl2, 1 mM MgSO4, 18 mM D-glucose, and 20 mM HEPES. The pH calibration was fit to a linear regression curve. Intracellular proton concentration was calculated from the pH. The reduced amount of protons in the cell was calculated by log 2 transformation of the ratio between treated and untreated cells (control). The presented data is given as percent variation in comparison to untreated cells.

[4] = system: TAS2R10 "knockdown" HGT-1 cells; test: Effect of caffeine on proton secretion in TAS2R10 siRNA knockdown HGT-1 cells; type: cell-based, human; conditions: 3 mM, 10 min
Description: The HiPerFect transfection reagent (Qiagen) was used to transfect small interfering RNA (siRNA), targeting specifically human TAS2R10 (5′-[…]-3′; Sigma-Aldrich) into HGT-1 cells for the specific reduction of TAS2R10 expression. Cells were grown to 50% confluence in serum containing DMEM-media and incubation for 48 h was started by addition of serum-free media containing siRNA targeted against TAS2R10 (final siRNA concentration 1 nM) and HiPerFect transfection reagent (1 μL/6 pmol siRNA). Unrelated non-silencing siRNA (Qiagen) was used as negative control and siRNA targeted against Mn/Hs_MAPK1 which is known to efficiently knocks down human MAPK1 (Qiagen) was used as positive control. A mock transfection, in which only the HiPerFect transfection reagent was tested, was also carried out to exclude the effects of the transfection reagent itself. The knockdown efficiency was controlled by measuring mRNA expression of TAS2R10 using RT-qPCR as explained in example 1.
Statistics: two-way ANOVA with Student-Newman-Keuls post-hoc test, data shown as mean±SEM, n=3, tr=6.

[5] = caffeine 500 ppm + test compound 25 ppm
[6] = theobromine 300 ppm + test compound 25 ppm
[7] = 0.3 mM theobromine + 0.03 mM test compound
[8] = 0.3 mM theobromine + 0.3 mM test compound
[9] = 3 mM caffeine + 0.03 mM test compound
[10] = 3 mM caffeine + 0.3 mM test compound
[11] = caffeine 500 ppm + test compound 100 ppm
[12] = theobromine 300 ppm + test compound 100 ppm

Which “Proton secretion T/C [%]” value (HGT-1 cells [1]; 1 mM) does the source give for `NCCc1c[nH]cn1` [Histamine, histamine] here?
The value was 36.66% and 45.70%.

For `COc1cc(C[C@H]2COC(=O)[C@@H]2Cc2ccc(O)c(OC)c2)ccc1O` [Matairesinol, matairesinol], which “% Reduction of the Bitter impression” value [2, 5] is on record?
The value was 35.5%.

What about the “Bitterness Bitter compound + Test substance” value [2, 5] of the same compound?
The value was 2.7 ± 1.77.

What about the “% Reduction of the Bitter impression” value [2, 6] of the same compound?
Its value is 24.7%.

And the “Bitterness Bitter compound + Test substance” value [2, 6]?
The value was 3.4 ± 1.49.

And the “Percent increase in proton secretion T/C [%]” value (“Percent increase … [%]” for short) (HGT-1 cells [3]; [7])?
The value was 23.41%.

And the “Percent increase … [%]” value (HGT-1 cells [3]; [8])?
Its value is −18.25%.

And the “Percent increase … [%]” value (HGT-1 cells [3]; [9])?
The value was 14.39%.

And the “Percent increase … [%]” value (HGT-1 cells [3]; [10])?
The value was −20.43%.

For `Cn1cnc2c1c(=O)[nH]c(=O)n2C` [Theobromine, theobromine], which “Bitterness Bitter compound alone” value ([2]; 300 ppm) is on record?
Its value is 3.8 ± 1.8 and 4.5 ± 2.01 and 4.2 ± 1.65 and 4.3 ± 1.8.

And the “Proton secretion T/C [%]” value (HGT-1 cells [1]; 0.03 μM)?
The value was 3.71%.

What about the “Proton secretion T/C [%]” value (HGT-1 cells [1]; 0.3 μM) of the same compound?
Its value is 17.71%.

What about the “Proton secretion T/C [%]” value (HGT-1 cells [1]; 3 μM) of the same compound?
Its value is 43.16%.

And the “Proton secretion T/C [%]” value (HGT-1 cells [1]; 30 μM)?
The value was 44.88%.

What about the “Proton secretion T/C [%]” value (HGT-1 cells [1]; 300 μM) of the same compound?
The value was 57.2%.

What does the source list for `Cn1c(=O)c2c(ncn2C)n(C)c1=O` [Caffeine, caffeine]?
Percent effect on proton secretion T/C [%] ([4]; mock transfected cells): 52.80%; Percent effect on proton secretion T/C [%] ([4]; not transfected cells): 48.80%; Percent effect on proton secretion T/C [%] ([4]; siRNA TAS2R10 knockdown cells): 28.58%; Bitterness Bitter compound alone ([2]; 500 ppm): 6.7 ± 1.1 and 4.1 ± 0.9 and 6.3 ± 1.4; Proton secretion T/C [%] (HGT-1 cells [1]; 0.3 μM): 25.49%; Proton secretion T/C [%] (HGT-1 cells [1]; 3 μM): 14.74%; Proton secretion T/C [%] (HGT-1 cells [1]; 30 μM): 23.43%; Proton secretion T/C [%] (HGT-1 cells [1]; 300 μM): 17.07%; Proton secretion T/C [%] (HGT-1 cells [1]; 3000 μM): 40.97%; Percent increase in proton secretion T/C [%] (HGT-1 cells [3]; 3 mM caffeine alone): 54.79% and 54.05% and 38.75% and 52.41%

Which results are given for `O=C1C[C@@H](c2ccc(O)c(O)c2)Oc2cc(O)cc(O)c21` [Eriodictyol, eriodictyol]?
% Reduction of the Bitter impression [2, 11]: 47%; Bitterness Bitter compound + Test substance [2, 11]: 3.5 ± 0.7; % Reduction of the Bitter impression [2, 12]: 36%; Bitterness Bitter compound + Test substance [2, 12]: 2.4 ± 1.2; Percent increase in proton secretion T/C [%] (HGT-1 cells [3]; [7]): 23.95%; Percent increase in proton secretion T/C [%] (HGT-1 cells [3]; [8]): −42.86%; Percent increase in proton secretion T/C [%] (HGT-1 cells [3]; [9]): 29.69%; Percent increase in proton secretion T/C [%] (HGT-1 cells [3]; [10]): −33.96%

For `COc1cc(C[C@H]2CO[C@H](c3ccc(O)c(OC)c3)[C@H]2CO)ccc1O` [Lariciresinol, lariciresinol], which “% Reduction of the Bitter impression” value [2, 5] is on record?
Its value is 38.6%.

And the “Bitterness Bitter compound + Test substance” value [2, 5]?
Its value is 2.9 ± 1.41.

What about the “% Reduction of the Bitter impression” value [2, 6] of the same compound?
Its value is 10.7%.

What about the “Bitterness Bitter compound + Test substance” value [2, 6] of the same compound?
The value was 3.7 ± 2.24.

And the “Percent increase … [%]” value (HGT-1 cells [3]; [7])?
Its value is 31.73%.

What about the “Percent increase … [%]” value (HGT-1 cells [3]; [8]) of the same compound?
Its value is 17.55%.

What about the “Percent increase … [%]” value (HGT-1 cells [3]; [9]) of the same compound?
Its value is 46.40%.

And the “Percent increase … [%]” value (HGT-1 cells [3]; [10])?
The value was 21.57%.

`COc1cc([C@@H]2CC(=O)c3c(O)cc(O)cc3O2)ccc1O` [Homoeriodictyol, homoeriodictyol] was tested. Which “% Reduction of the Bitter impression” value [2, 11] did it give?
The value was 28%.

What about the “Bitterness Bitter compound + Test substance” value [2, 11] of the same compound?
The value was 4.5 ± 1.4.

And the “% Reduction of the Bitter impression” value [2, 12]?
Its value is 12.5%.

What about the “Bitterness Bitter compound + Test substance” value [2, 12] of the same compound?
Its value is 3.7 ± 1.3.

And the “Percent increase … [%]” value (HGT-1 cells [3]; 0.3 mM theobromine + 0.003 mM test compound)?
Its value is 21.56%.

And the “Percent increase … [%]” value (HGT-1 cells [3]; [7])?
Its value is 13.79%.

What about the “Percent increase … [%]” value (HGT-1 cells [3]; [8]) of the same compound?
Its value is −16.92%.

What about the “Percent increase … [%]” value (HGT-1 cells [3]; [9]) of the same compound?
The value was 37.99%.

And the “Percent increase … [%]” value (HGT-1 cells [3]; [10])?
The value was 20.18%.
